From patent US4426390A, “Novel β-lactam compounds, process for producing thereof, and use thereof as medicines” (Sanraku-Ocean Co., Ltd., priority 1980, dated 1984)
In brackets after ≈: the same amount, converted by molar mass. Like-named read-outs stand apart in the source and are kept apart here.

How the values were obtained:
Ps. aeruginosa NCTC10490 = assay: MIC by agar dilution method; assay type: cell-based; conditions: Pseudomonas aeruginosa, 37° C., 18 hours
Description: (§1) The MIC is measured by an agar dilution method based on the standard method of the Japanese Society of Chemotherapy (Japanese Society of Chemotherapy: The Revised Method of Determination of MIC Values, Chemotherapy 22, 1126-1128, […]). Specifically, the antibiotic is serially diluted with a 1/50 M phosphate buffer at a pH of 7.3 to prepare a twofold dilution series. One milliliter of each dilution and 9 ml of an agar medium (Heart Infusion Agar; a product of Difco Laboratories) are mixed and allowed to solidify in a Petri dish having a diameter of 9 cm. One loopful of the stock culture of the test microbe is inoculated in trypto-soy buillon (a product of Eiken Kagaku Co., Ltd.) and incubated at 37° C. for 18 hours. The resulting culture broth is diluted to a concentration of about 10^6 cells/ml with physiological saline and inoculated on the agar plate by means of a microplanter.

Providencia sp. P8 = assay: MIC by agar dilution method; assay type: cell-based
Description: as §1

Escherichia coli K-12 = assay: MIC by agar dilution method; assay type: cell-based
Description: as §1

[1] = test system: Staphylococcus aureus 209P; assay: MIC by agar dilution method; assay type: cell-based; conditions: 37° C., 18 hours
Description: as §1

S. aureus Russell = assay: MIC by agar dilution method; assay type: cell-based; conditions: Staphylococcus aureus
Description: as §1

P. vulgaris GN76 = assay: MIC by agar dilution method; assay type: cell-based; conditions: Proteus vulgaris, 37° C., 18 hours
Description: as §1

S. aureus Smith = assay: MIC by agar dilution method; assay type: cell-based; conditions: Staphylococcus aureus, 37° C., 18 hours
Description: as §1

Comamonas terrigena B996 = assay: MIC by agar dilution method; assay type: cell-based; conditions: 37° C., 18 hours
Description: as §1

[2] = test system: Pseudomonas aenginosa IFO3445; assay: MIC by agar dilution method; assay type: cell-based; conditions: 37° C., 18 hours
Description: as §1

[3] = test system: Klebsiella pneumoniae K13; assay: MIC by agar dilution method; assay type: cell-based; conditions: 37° C., 18 hours
Description: as §1

Sarcina lutea S19 = assay: MIC by agar dilution method; assay type: cell-based; conditions: Micrococcus luteus, 37° C., 18 hours
Description: as §1

[4] = test system: Bacillus subtillis ATCC 6633; assay: MIC by agar dilution method; assay type: cell-based; conditions: ATCC6633; Bacillus subtillis ATCC 6633; agar dilution, 37° C., 18 hours; read-out: MIC
Description: as §1

Ent. cloacae 45 = assay: MIC by agar dilution method; assay type: cell-based; conditions: Enterobacter cloacae, 37° C., 18 hours
Description: as §1

S. epidermidis = assay: MIC by agar dilution method; assay type: cell-based; conditions: Staphylococcus epidermidis, 37° C., 18 hours
Description: as §1

Serratia marcesceus S18 = assay: MIC by agar dilution method; assay type: cell-based; conditions: 37° C., 18 hours
Description: as §1

[5] = test system: Enterobacter aerogenes E19; assay: MIC by agar dilution method; assay type: cell-based; conditions: Klebsiella aerogenes, 37° C., 18 hours
Description: as §1

P. sp. P22 = assay: MIC by agar dilution method; assay type: cell-based; conditions: 37° C., 18 hours
Description: as §1

E. coli RGN823 = assay: MIC by agar dilution method; assay type: cell-based; conditions: Escherichia coli, 37° C., 18 hours
Description: as §1

Ser. marcesceus T55 = assay: MIC by agar dilution method; assay type: cell-based; conditions: 37° C., 18 hours
Description: as §1

Alcaligenes Faecolis A1 = assay: MIC by agar dilution method; assay type: cell-based
Description: as §1

Ent. sp. E8 = assay: MIC by agar dilution method; assay type: cell-based
Description: as §1

[6] = test system: Citrobacter Freundii GN346; assay: MIC by agar dilution method; assay type: cell-based; conditions: 37° C., 18 hours
Description: as §1

P. rettgeri P7 = assay: MIC by agar dilution method; assay type: cell-based; conditions: Providencia rettgeri
Description: as §1

Proteus mirabilis P6 = assay: MIC by agar dilution method; assay type: cell-based
Description: as §1

[7] = Stability (half life) in phosphate buffers of various pH; assay type: physicochemical; conditions: phosphate buffer, pH 4 to 9, 28° C.
Description: By adding 2% sodium hydroxide or 10% hydrochloric acid, the pH of 0.05 M phosphate buffer is adjusted to 4, 5, 6, 7, 8 and 9, respectively, and distributed into test tubes in an amount of 3 ml. Concentrated solution of antibiotic OA-6129A (0.05 ml) is added to each test tube and allowed to stand in a thermostatic chamber of 28° C. The time course curve of the concentration decrease of antibiotic OA-6129A is drawn by spectrophotometric measurement at 300 nm, from which the half life of the antibiotic at the indicated pH is calculated. As a control, antibiotic PS-5, a carbapenem compound described in the above-cited reference is simultaneously tested.

ddY mice = conditions: mouse, in vivo, ip, 500 mg/kg
[8] = Providencia sp. P8, agar dilution, 37° C., 18 hours, read-out: MIC
[9] = K12, Escherichia coli K-12, agar dilution, 37° C., 18 hours, read-out: MIC
[10] = S. aureus Russell, agar dilution, 37° C., 18 hours, read-out: MIC
[11] = Alcaligenes Faecolis A1, agar dilution, 37° C., 18 hours, read-out: MIC
[12] = Ent. sp. E8, agar dilution, 37° C., 18 hours, read-out: MIC
[13] = P. rettgeri P7, agar dilution, 37° C., 18 hours, read-out: MIC
[14] = Proteus mirabilis P6, agar dilution, 37° C., 18 hours, read-out: MIC

SMILES | MIC (Ps. aeruginosa NCTC10490) [µg/mL] | MIC (Providencia sp. P8; [8]) [µg/mL] | MIC (Escherichia coli K-12; [9]) [µg/mL] | MIC [1] [µg/mL] | MIC (S. aureus Russell; [10]) [µg/mL] | MIC (P. vulgaris GN76) [µg/mL] | MIC (S. aureus Smith) [µg/mL] | MIC (Comamonas terrigena B996) [µg/mL] | MIC [2] [µg/mL] | MIC [3] [µg/mL] | MIC (Sarcina lutea S19) [µg/mL] | MIC [4] [µg/mL] | MIC (Ent. cloacae 45) [µg/mL] | MIC (S. epidermidis) [µg/mL] | MIC (Serratia marcesceus S18) [µg/mL] | MIC [5] [µg/mL] | MIC (P. sp. P22) [µg/mL] | MIC (E. coli RGN823) [µg/mL] | MIC (Ser. marcesceus T55) [µg/mL] | MIC [6] [µg/mL] | further results
CC(O)[C@@H]1C(=O)N2C(C(=O)O)=C(SCCNC(=O)CCNC(=O)C(O)C(C)(C)CO)C[C@H]12 (relative stereo) [OA-6129B1] | > 50 | 0.2 (≈ 0.422 µM) | 0.39 (≈ 0.824 µM) | 0.1 (≈ 0.211 µM) | 0.78 (≈ 1.65 µM) | 50 (≈ 106 µM) | 1.56 (≈ 3.29 µM) | 0.012 (≈ 0.0253 µM) | > 50 | > 50 | 0.1 (≈ 0.211 µM) | 0.05 (≈ 0.106 µM) | 6.25 (≈ 13.2 µM) | 0.78 (≈ 1.65 µM) | 6.25 (≈ 13.2 µM) | 3.13 (≈ 6.61 µM) | > 50 | 0.39 (≈ 0.824 µM) | 12.5 (≈ 26.4 µM) | 6.25 (≈ 13.2 µM) | MIC (Alcaligenes Faecolis A1; [11]): 0.2 µg/mL (≈ 0.422 µM); MIC (Ent. sp. E8; [12]): 0.39 µg/mL (≈ 0.824 µM); MIC (P. rettgeri P7; [13]): 0.78 µg/mL (≈ 1.65 µM); MIC (Proteus mirabilis P6; [14]): 0.78 µg/mL (≈ 1.65 µM)
CC(OS(=O)(=O)O)[C@@H]1C(=O)N2C(C(=O)O)=C(SCCNC(=O)CCNC(=O)C(O)C(C)(C)CO)C[C@H]12 (relative stereo) [OA-6129C] | > 50 | 0.2 (≈ 0.361 µM) | 0.78 (≈ 1.41 µM) | 0.1 (≈ 0.181 µM) |  | 1.56 (≈ 2.82 µM) | 0.78 (≈ 1.41 µM) | 0.1 (≈ 0.181 µM) | 50 (≈ 90.3 µM) | 12.5 (≈ 22.6 µM) | 0.78 (≈ 1.41 µM) | 0.1 (≈ 0.181 µM) | 50 (≈ 90.3 µM) | 3.13 (≈ 5.65 µM) | 12.5 (≈ 22.6 µM) | 6.25 (≈ 11.3 µM) | 0.78 (≈ 1.41 µM) | 0.39 (≈ 0.704 µM) | 12.5 (≈ 22.6 µM) | 50 (≈ 90.3 µM) | MIC (S. aureus Russell; 18 h): 3.13 µg/mL (≈ 5.65 µM); MIC (Alcaligenes Faecolis A1; [11]): 0.39 µg/mL (≈ 0.704 µM); MIC (Ent. sp. E8; [12]): 1.56 µg/mL (≈ 2.82 µM); MIC (P. rettgeri P7; [13]): 0.2 µg/mL (≈ 0.361 µM); MIC (Proteus mirabilis P6; [14]): 0.78 µg/mL (≈ 1.41 µM); stability relative to OA-6129A [7]: substantially the same stability as antibiotic OA-6129A; acute toxicity (ddY mice): no acute toxicity is observed
Cc1nnc(SCC2=C(C(=O)O)N3C(=O)[C@@H](NC(=O)Cn4cnnn4)[C@H]3SC2)s1 [CEZ, reference compound] | > 400 |  |  | 0.1 (≈ 0.22 µM) | 0.2 (≈ 0.44 µM) | > 400 | 0.2 (≈ 0.44 µM) | 0.05 (≈ 0.11 µM) | > 400 | 25 (≈ 55 µM) | 0.39 (≈ 0.858 µM) | 0.1 (≈ 0.22 µM) | > 400 | 0.2 (≈ 0.44 µM) | > 400 | > 400 | > 400 | 1.56 (≈ 3.43 µM) | > 400 | > 400 | MIC (Providencia sp. P8; Providencia, SP.P8, 18 h): 1.56 µg/mL (≈ 3.43 µM); MIC (Escherichia coli K-12; Escherichia coli, K12, 18 h): 0.78 µg/mL (≈ 1.72 µM); MIC (Alcaligenes Faecolis A1; Alcaligenes, 18 h): 3.13 µg/mL (≈ 6.89 µM); MIC (Ent. sp. E8; 18 h): 3.13 µg/mL (≈ 6.89 µM); MIC (P. rettgeri P7; P7, 18 h): 3.13 µg/mL (≈ 6.89 µM); MIC (Proteus mirabilis P6; Proteus mirabilis, P6, 18 h): 3.13 µg/mL (≈ 6.89 µM)
CC(O)C1C(=O)N2C(C(=O)O)=C(SCCNC(=O)CCNC(=O)C(O)C(C)(C)CO)CC12 (stereo not shown) [OA-6129B] |  |  |  |  |  |  |  |  |  |  |  |  |  |  |  |  |  |  |  |  | stability relative to OA-6129A [7]: substantially the same stability as antibiotic OA-6129A; acute toxicity (ddY mice): no acute toxicity is observed
